Test results taken from US20200188511A1, “METHODS OF IMPROVING EFFICACY OF ALLERGY VACCINES” (ANERGIS S.A., priority 2018, published 2020).

B1: Aller T2: COP peptide of 71 amino acids, aa 48-118 of Bet v 1 (SEQ ID 4) (peptide)
chain: NGGPGTIKKISFPEGFPFKYVKDRVDEVDHTNFKYNYSVIEGGPIGDTLEKISNEIKIVATPDGGSILKIS

test system: Bet v 1-specific IgE; experiment: In vitro IgE binding (IgE ELISA competition and basophil degranulation assays); parameters: species or system human
Protocol: These experiments are necessary to ensure that the presentation of the peptides in the Bet v1 COP-Virosomes is not associated with the appearance of unexpected binding to pre-existing Bet v 1-specific IgE.
Bet v 1 at 2 μg/ml was coated overnight on 96-well Nunc Maxisorp® immunoplates (Thermo Fisher Scientific Inc., Wohlen, Switzerland). Sera from birch allergic persons were diluted either ten-fold or twenty-fold (depending on Bet v 1 specific IgE content) and added to serial dilutions of either Bet v 1 or COPs virosomes and incubated for 15 minutes on ice. Serial dilutions of Bet v 1 and COPs virosomes ranged from 10^−6 M to 10^−12 M, final concentration. Serum antigen mixtures were then added to the ELISA plates.

IgE binding, absence of detectable IgE binding:
Aller T1: COP peptide of 49 amino acids, aa 2-50 of Bet v 1 (SEQ ID 4) (GVFNYETETTSVIPAARLFKAFILDGDNLFPKVAPQAISSVENIEGNGG)
Aller T3: COP peptide of 55 amino acids, aa 106-160 of Bet v 1 (SEQ ID 4) (VATPDGGSILKISNKYHTKGDHEVKAEQVKASKEMGETLLRAVESYLLAHSDAYN)
B1
